Structures are written as SMILES. Entries after “also recorded” stand apart in the source; their conditions may differ.

Data on 7 compounds can be found in article PMC12156033, “N-Alkylamino Stilbene Compounds as Amyloid β Inhibitors for Alzheimer’s Disease Research” (Molecules, 2025).

Data set [1] in a line: Log D measurement octanol/PBS. In kind it is physicochemical. The conditions noted are these: octanol / PBS pH 7.4, 10 μM, triplicate, ± SD. On the procedure:
The determination of log D values for N-alkylamino multifunctional compounds was performed using a slightly modified reported procedure. The compounds (final concentration 10 μM) were added to the premix suspension containing 0.5 mL octanol and 0.5 mL octanol-saturated PBS buffer (pH = 7.4). The resulting mixture was stirred vigorously for 5 min and centrifuged at 2000 rpm for 5 min. The octanol layer was separated from the PBS layer, and the fluorescence spectrum was recorded. The remaining 0.5 mL PBS layer was partitioned with 0.5 mL PBS-saturated octanol, and the octanol layer was separated after 5 min of vigorous shaking and centrifuging. The fluorescence spectrum of the octanol layer was recorded. The log D value was calculated based on the fluorescence intensity ratio for the two octanol layers. Each experiment was completed in triplicate, and the error represents the standard deviation for the average log D values.

The target of data set [2] is T1, amyloid plaques in 5xFAD mice brain sections (Homo sapiens, UniProt P05067).
T1 construct: the amyloid beta (Aβ) peptide that makes up amyloid plaques; tissue Jackson Laboratories; host or cells: brain sections from 11-month-old 5xFAD transgenic mice (Tg6799 line)
The experiment in a line: Histological staining of 5xFAD mice brain sections, colocalization with HJ3.4 antibody. The class given is binding, mouse. The conditions noted are these: 11-month-old 5xFAD mice brain sections, compound 25 μM, HJ3.4 1 μg/mL. The source says:
To further investigate the affinity of the developed compounds toward various Aβ aggregates in situ, the intrinsic fluorescence properties of the compounds were employed for their ability to stain insoluble amyloid plaques. For these studies, brain sections from 11-month-old 5xFAD transgenic mice, which rapidly develop severe amyloid pathology, were co-stained with stilbenes and HJ3.4 antibody. HJ3.4 is an anti-amyloid antibody that binds to the N-terminal region of the Aβ peptide, thereby targeting both soluble and insoluble amyloid species. To evaluate the Aβ binding specificity of the compounds in vitro, brain sections from 11-month-old 5xFAD mice were washed with PBS (3 × 5 min) and blocked with bovine serum albumin (2% w/v BSA in PBS, pH 7.4, 10 min). Then, the sections were incubated with 25 μM of multifunctional compounds and sequentially stained with HJ3.4 antibody (Professor David Holtzman, 1 μg/mL) for 30 min. The brain sections were treated with 2% w/v BSA-PBS again for 4 min to remove any compounds or antibodies that were non-specifically binding to the tissue. Finally, the sections were washed with PBS (3 × 2 min) and DI water (2 min) and mounted with non-fluorescent mounting media (Vectashield). Colocalization analysis and determination of Pearson’s correlation coefficient were performed with the imaging software Fiji (ImageJ 1.52p). Mouse brains were harvested in compliance with the Institutional Animal Care and Use Committee of the University of Illinois at Urbana-Champaign (IACUC protocol #22094).

Data set [3] has as its system Cu-Aβ42 cytotoxicity on N2a cells. The data set is described as follows: N2a cell rescue from Cu-induced Aβ42 cytotoxicity (Alamar blue). In kind it is cell-based, mouse. The following applies: [Aβ42] = [CuCl2] = 20 μM, compound 5 μM. How it is done:
Mouse neuroblastoma Neuro2A (N2A) cell lines were purchased from the American Type Culture Collection (ATCC), Manassas, VA, USA. Cells were grown in DMEM/10% FBS, which is the regular growth media for N2A cells, in a humidified atmosphere with 5% CO2 at 37 °C. N2A cells were seeded in a clear 96-well plate (2.5 × 10^4/well) with DMEM/10% FBS. The media was changed to DMEM/N-2 media 24 h later. After 1 h, the treatment reagents were added. Owing to the poor solubility of compounds in the media, the final amount of DMSO used was 1% (v/v). After an additional incubation of 40 h, Alamar Blue solution was added to each well, and the cells were incubated for 90 min at 37 °C. Fluorescence intensity was measured at 590 nm (excitation wavelength = 560 nm).
The Alamar Blue assay was carried out as described, with the following treatment reagents: 20 μM Aβ42 species, 5 μM compounds, and 20 μM CuCl2.
For orientation: Alamar Blue is a resazurin reagent that responds to reducing activity.

The target of data set [4] is T2, Aβ42 fibrils (Homo sapiens, UniProt P05067).
T2 construct: commercial Aβ42 peptide (AnaSpec or GL Biochem); purchased AnaSpec or GL Biochem
The data set is described as follows: Fluorescence spectra of compounds with Aβ42 fibrils. In kind it is binding. The following applies: excitation 380 nm; compound 5.0 µM in PBS with Aβ fibrils. How it is done:
(§1) All fluorescence measurements were performed using a SpectraMax M2e plate reader (Molecular Devices, San Jose, CA, USA). The fluorescence spectra of the compounds’ solution (100 μL PBS, 5.0 µM) were recorded with excitation at 380 nm and an emission wavelength from 400 to 680 nm. To PBS solutions (100 μL) of the compounds (5.0 µM), various Aβ42 species were added, with final concentrations of 5.0 µM and 25.0 µM, and their fluorescence spectra (λmax of emission) were determined as described above.
(§2) Aβ42 powder was prepared by dissolving commercial Aβ42 peptide (AnaSpec or GL Biochem) in ammonium hydroxide solution (1%, v/v). The solution was then aliquoted out and lyophilized overnight. The resulting aliquoted powder was stored at −80 °C. Aβ42 monomers were generated by dissolving Aβ42 powder in 1,1,1,3,3,3-hexafluoro-2-propanol (HFIP, 1 mM) and incubating for 1 h at room temperature. The solution was then evaporated overnight and dried by vacuum centrifuge to result in monomeric films. Aβ42 fibrils were generated by dissolving the monomeric Aβ42 films in DMSO, diluting into the appropriate buffer, and incubating for 24 h at 37 °C with continuous agitation (final DMSO concentration was <2%). For the preparation of Aβ42 oligomers, the peptides were suspended in PBS buffer and incubated overnight at 4 °C.

Data set [5] deals with T3, soluble Aβ42 aggregates (sAβ) (Homo sapiens, UniProt P05067).
T3 construct: commercial Aβ42 peptide (AnaSpec or GL Biochem); purchased AnaSpec or GL Biochem
The data set is described as follows: Fluorescence spectra of compounds with soluble Aβ42 aggregates. In kind it is binding. The following applies: excitation 380 nm; compound 5.0 µM in PBS with soluble Aβ aggregates. On the procedure:
as §1, §2

Data set [6] can be described thus: Fluorescence spectra of the compounds alone in PBS. The class given is physicochemical. The following applies: excitation 380 nm; compound 5.0 µM in PBS. How it is done:
as §1

Data set [7] addresses T4, Aβ aggregates (sAβ and Aβ fibrils) (Homo sapiens, UniProt P05067).
T4 construct: commercial Aβ42 peptide (AnaSpec or GL Biochem); purchased AnaSpec or GL Biochem
The experiment in a line: Fluorescence turn-on assay with Aβ aggregates. In kind it is binding. The following applies: compound 5 μM in PBS pH 7.4. How it is done:
A fluorescence turn-on assay was performed to interrogate the effect of structural differences on the fluorescence enhancement with Aβ aggregates. […] Increases in fluorescence intensity with different aggregates would be ideal for tools used in amyloid-based assays. […] Without the ortho-methoxy group on the EAG, there is greater fluorescence enhancement for Aβ fibrils over sAβ for L3 and L4. […] The larger fluorescence enhancement observed for L6 than L5 indicates the dimethylamine EDG/methoxy EAG pair has a greater TICT. The piperidine-EDG-containing L7 has only slightly higher turn-on with sAβ, which may be attributed to the ortho-methoxy group on the EAG. […] In this case, it appears that the methoxy on the EAG diminishes the overall fluorescence of the compound since L8 has greater baseline fluorescence and turn-on than L7. This is also the case for the morpholine-EDG-containing L9 and L10. The lack of a methoxy group on the L10 EAG, in conjunction with the oxygen heteroatom from the morpholine EDG, electronically favors turn-on with Aβ fibrils to a slight extent. […] Changing the EDG to a methyl piperazine, L11, increases baseline fluorescence and turn-on compared to L9. […] L11 and L12, both containing an N-methyl piperazine EDG, show similar turn-on with sAβ and fibrils, and the o-methoxy EAG of L11 increases overall baseline fluorescence compared to L12. […] The spectra for the remaining compounds can be found in the Supplementary Information (Figure S1). None of the three compounds with the highest fluorescence contained an o-methoxy group on the EAG.
All fluorescence measurements were performed using a SpectraMax M2e plate reader (Molecular Devices, San Jose, CA, USA). The fluorescence spectra of the compounds’ solution (100 μL PBS, 5.0 µM) were recorded with excitation at 380 nm and an emission wavelength from 400 to 680 nm. To PBS solutions (100 μL) of the compounds (5.0 µM), various Aβ42 species were added, with final concentrations of 5.0 µM and 25.0 µM, and their fluorescence spectra (λmax of emission) were determined as described above. […]

T2 sequence (P05067 672-713 limits assumed): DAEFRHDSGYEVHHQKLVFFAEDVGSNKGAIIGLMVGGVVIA
T1 sequence (P05067 672-713 limits assumed): as above
T3 sequence (P05067 672-713 limits assumed): as above
T4 sequence (P05067 672-713 limits assumed): as above

`COc1cc(/C=C/c2ccc(N(C)C)cc2)cc(CN2CCN(C)CCN(C)CC2)c1O` [Compound L1, (E)-2-((4,7-dimethyl-1,4,7-triazonan-1-yl)methyl)-4-(4-(dimethylamino)styryl)-6-methoxyphenol] showed a pH-dependent lipophilicity (logD) in data set [1] of 1.33 ± 0.01. In data set [2], the “Pearson's coefficient (R) of colocalization with AF594-HJ3.4” value (from here on “Pearson's coefficient (R)”) worked out at 0.67. Besides, the “effect on Cu-stabilized Aβ42 / Aβ42-induced toxicity” value in data set [3] is recorded as “rescue cells from Cu-Aβ42 cytotoxicity”. Moreover, in data set [4], the “Compound+Fibrils λem (λmax of emission)” value amounted to 455 nm. The “Compound+sAβ λem (λmax of emission)” value in data set [5] was determined as 455 nm. The “Compound λem (λmax of emission)” value in data set [6] turned out to be 455 nm.

`CCN(CC)c1ccc(/C=C/c2ccc(O)c(CN3CCN(C)CCN(C)CC3)c2)cc1` [Compound L6, (E)-4-(4-(diethylamino)styryl)-2-((4,7-dimethyl-1,4,7-triazonan-1-yl)methyl)phenol] came in with a logD in data set [1] of 1.37 ± 0.01. In addition, in data set [2], the “Pearson's coefficient (R)” value is 0.70. The “Compound+Fibrils λem (λmax of emission)” value in data set [4] was determined as 430 nm. For the same compound, the “Compound+sAβ λem (λmax of emission)” value in data set [5] worked out at 430 nm. Moreover, the “Compound λem (λmax of emission)” value in data set [6] was 455 nm.

For the compound `COc1cc(/C=C/c2ccc(N3CCN(C)CC3)cc2)cc(CN2CCN(C)CCN(C)CC2)c1O` [Compound L11, (E)-2-((4,7-dimethyl-1,4,7-triazonan-1-yl)methyl)-6-methoxy-4-(4-(4-methylpiperazin-1-yl)styryl)phenol], the pH-dependent lipophilicity (logD) in data set [1] was 0.85 ± 0.01. For the same compound, the “Pearson's coefficient (R)” value in data set [2] was 0.77. Also, in data set [3], the “effect on Cu-stabilized Aβ42 / Aβ42-induced toxicity” value was “inhibit both Cu-stabilized Aβ42- and Aβ42-induced toxicity; also recorded: rescue cells from Cu-Aβ42 cytotoxicity”. In addition, in data set [4], the “Compound+Fibrils λem (λmax of emission)” value is 450 nm. The “Compound+sAβ λem (λmax of emission)” value in data set [5] is recorded as 450 nm. For the same compound, the “Compound λem (λmax of emission)” value in data set [6] came out at 455 nm.

Consider `CCN(CC)c1ccc(/C=C/c2cc(CN3CCN(C)CCN(C)CC3)c(O)c(OC)c2)cc1` [Compound L5, (E)-4-(4-(diethylamino)styryl)-2-((4,7-dimethyl-1,4,7-triazonan-1-yl)methyl)-6-methoxyphenol], for which the logD in data set [1] came to 1.39 ± 0.01. In data set [2], the “Pearson's coefficient (R)” value is reported as 0.74. Besides, the “effect on Cu-stabilized Aβ42 / Aβ42-induced toxicity” value in data set [3] was “rescue cells from Cu-Aβ42 cytotoxicity”. Moreover, the “Compound+Fibrils λem (λmax of emission)” value in data set [4] was 435 nm. The “Compound+sAβ λem (λmax of emission)” value in data set [5] is reported as 435 nm. The “Compound λem (λmax of emission)” value in data set [6] came to 460 nm.

In the case of `CN1CCN(C)CCN(Cc2cc(/C=C/c3ccc(N4CCOCC4)cc3)ccc2O)CC1` [Compound L10, (E)-2-((4,7-dimethyl-1,4,7-triazonan-1-yl)methyl)-4-(4-morpholinostyryl)phenol], the logD in data set [1] is 1.03 ± 0.01. Besides, the “Pearson's coefficient (R)” value in data set [2] was 0.74. In addition, in data set [3], the “effect on Cu-stabilized Aβ42 / Aβ42-induced toxicity” value is recorded as “rescue cells from Cu-Aβ42 cytotoxicity”. In addition, in data set [4], the “Compound+Fibrils λem (λmax of emission)” value is reported as 435 nm. Further, the “Compound+sAβ λem (λmax of emission)” value in data set [5] was 435 nm. Further, in data set [7], the “fluorescence enhancement / turn-on with Aβ aggregates” value was “highest fluorescence intensity; also recorded: greatest overall fluorescence enhancements”. Besides, in data set [6], the “Compound λem (λmax of emission)” value was determined as 455 nm.

Turning to `CNc1ccc(/C=C/c2ccc(O)c(CN3CCN(C)CCN(C)CC3)c2)cc1` [Compound L3, (E)-2-((4,7-dimethyl-1,4,7-triazonan-1-yl)methyl)-4-(4-(methylamino)styryl)phenol], the logD in data set [1] came to 0.98 ± 0.01. In addition, the “Pearson's coefficient (R)” value in data set [2] worked out at 0.72. Besides, in data set [4], the “Compound+Fibrils λem (λmax of emission)” value came out at 430 nm. Also, the “Compound+sAβ λem (λmax of emission)” value in data set [5] stood at 430 nm. The “Compound λem (λmax of emission)” value in data set [6] was determined as 455 nm.

In data set [1], `COc1cc(/C=C/c2ccc(N3CCCCC3)cc2)cc(CN2CCN(C)CCN(C)CC2)c1O` [Compound L7, (E)-2-((4,7-dimethyl-1,4,7-triazonan-1-yl)methyl)-6-methoxy-4-(4-(piperidin-1-yl)styryl)phenol] had a pH-dependent lipophilicity (logD) of 1.35 ± 0.02. The “Pearson's coefficient (R)” value in data set [2] came out at 0.66. The “Compound+Fibrils λem (λmax of emission)” value in data set [4] was determined as 430 nm. Also, the “Compound+sAβ λem (λmax of emission)” value in data set [5] came out at 430 nm. For the same compound, the “Compound λem (λmax of emission)” value in data set [6] turned out to be 460 nm.

What is called logD is the decadic logarithm of the distribution of all forms, ionised or not, between an organic phase and buffer at a given pH. A high value points to higher lipophilicity.
